According to paper PMC12246756 (Frontiers in Pharmacology, 2025):

What was measured:
A375 (melanoma) = test: Sulforhodamine B (SRB) assay, A375; format: cell-based; details: Homo sapiens; for IC50: A-375, 48 h, read-out: IC50 (µM) A375
Text: (§1) Roswell Park Memorial Institute (RPMI)-1640 medium, Dulbecco’s modified eagle medium high glucose (DMEM; Gibco) supplemented with 10% Fetal Bovine Serum (FBS; Gibco, and 1% antibiotic-antimycotic (Gibco; Anti-Anti 100x), phosphate-buffered saline (PBS; Gibco), 0.25% trypsin (Gibco), sodium pyruvate (Sigma-Aldrich), HEPES (Gibco). Human cancer cell lines A549 (lung carcinoma), MCF-7 (breast carcinoma), MDAMB-231 (breast carcinoma), A375 (melanoma), and normal human embryonic kidney cells (HEK-293) were taken from Dr. Sheikh Tasduq Abdullah and Dr. Boobalan Gopu (CSIR-IIIM).
(§2) Their activity was tested against human cancer cell lines A549 (lung carcinoma), MCF-7 (breast carcinoma), MDAMB-231 (breast carcinoma), and A375 (melanoma). The selectivity index (SI) was calculated against normal human embryonic kidney cells (HEK-293) to determine cytotoxic selectivity. The cells (7 × 10^3 cells/well) were seeded on 96 well plates, followed by overnight incubation. Multiple concentrations (50 µM, 20 µM, 10 µM, 5 µM, and 1 µM) of compounds were used to treat the cells, except for control wells that contained only cells with media. After 48 h of incubation, the cells attached to wells were fixed with 50 µL of chilled 50% TCA, and the plate was kept at 4°C for 1 h, as described previously ([Malik et al., 2023]; [Kumar et al., 2024]). The plate was washed (3–4 times) with distilled water (250 µL/well) and air-dried for 24 h. The next day, 100 µL of 0.4% SRB dye was added to each well, and the cells were incubated at room temperature for 1 h. The plate contents were discarded and washed 3 times with 1% glacial acetic acid (250 µL/well), followed by one last wash with distilled water and air drying for another 24 h. Subsequently, 100 µL of Tris base (10 mM, pH 10.5) was added to each well to dissolve the dye bound to fixed cells. The dissolved dye indicating growth inhibition was quantified by calculating optical density at 540 nm via microplate reader (Tecan infinite M200PRO, Switzerland). The IC50 values were calculated using GraphPad Prism Software Version 5.0. A favorable Selectivity Index (SI) is the most relevant parameter to detect anti-cancer potential in vitro as it indicates drug safety against cancer cells versus normal cells, efficacy of the drug, and selectivity. The selectivity index is calculated by using the formula. Selective Index=IC50 in Normal cells/IC50 in Cancerous cell lines

MCF-7 (breast carcinoma) = test: Sulforhodamine B (SRB) assay, MCF-7; format: cell-based; details: Homo sapiens, MCF7, 48 h, read-out: IC50 (µM) MCF-7
Text: as §1, §2

[1] = test system: MDA-MB 231 (breast carcinoma); test: Sulforhodamine B (SRB) assay, MDA-MB 231; format: cell-based; details: Homo sapiens, MDA-MB-231, 48 h, read-out: IC50 (µM) MDA-MB 231
Text: as §1, §2

A549 (lung carcinoma) = test: Sulforhodamine B (SRB) assay, A549; format: cell-based; details: Homo sapiens, A549, 48 h, read-out: IC50 (µM) A549
Text: as §1, §2

[2] = test system: normal human embryonic kidney cells (HEK-293); test: Sulforhodamine B (SRB) assay, normal cells HEK-293; format: cell-based; details: HEK293, 48 h, normal cell line, mean ± SD (n = 3)
Text: as §1, §2

A375 cells [3] = test: Colony formation assay; format: cell-based, human
Procedure: A colony formation assay was performed to assess the ability of 3g to inhibit the reproductive and colony forming ability of A375 cells. The cells were seeded into a 6-well plate with a 1 × 10^3 cells/well density. Next day, the cells were treated with multiple concentrations of 3g, such as 30 µM, 20 µM, 10 µM and 1 µM, in fresh media for 48 h. The media was changed on alternate days till day 10, till untreated (negative control) became confluent. On day 10, the cells were washed with PBS, and colonies were observed under a microscope. The cells/colonies were fixed with 100% methanol for 20 min at 4°C and stained with 0.5% solution of crystal violet for 30 min at room temperature, as described previously ([Kumar et al., 2024]). Subsequently, the dye was removed from plates, and excess dye was rinsed by washing it with distilled water (3–5 times), followed by air drying. The colonies were counted using ImageJ software, and photographs were taken with a digital camera. The percentage of colonies formed was calculated using the formula mentioned below. Colony formation rate (%)=Number of colonies in treatment group/Number of colonies in control group×100

A375 cells [4] = test: Wound healing (cell scratch) assay; format: cell-based, human
Procedure: Cell scratch assay, also known as wound healing assay, was performed to evaluate the impact of 3g on migration of A375 cells. The cells were seeded into the 6-well plate with […] density. The next day, in fresh media, a horizontal scratch was administered in the 90% confluent monolayer using a sterile 200 µL tip, as described previously, with slight modification ([Kumar et al., 2024]). The cells were incubated for 48 h with multiple concentrations of 3g such as 30 µM, 20 µM, 10 µM and 1 µM. Wound healing was observed using a Digital Inverted Fluorescence Microscope (Life Technologies EVOS FLc). The percentage of wound healing was calculated as. Wound Closure (%)=[…]

mitosis cell cycle = test system: mitosis cell cycle; set-up: method as in Taylor, 1965; details: concentration of 50 nM; ref Taylor, 1965; cited from earlier work
A375 = test: cells; format: cell-based; details: Homo sapiens, A-375; MTT assay, 48 h
Procedure: (§3) Cell viability was assessed using the MTT assay, as outlined in previous studies ([Majeed et al., 2014]; [Amin et al., 2025]). Briefly, A549, A375, MCF-7 and MDA-MB231 cells (10 × 10^3 cells/well) were seeded in 96-well plates and incubated for 24 h at 37°C in a 5% CO2 atmosphere. After this incubation, the cells were treated with test compounds for another 48 h. At 44th hour of treatment, the cells were incubated with MTT (2.5 mg/mL) for additional 4 h. At 48th hour, DMSO was added (100 µL/well), to dissolve formazan crystals. Absorbance was measured at 570 nm. Cell viability was calculated relative to untreated controls. IC50 values were determined from independent triplicate experiments using GraphPad™ Prism 8.0 software. […]

A549 = test: cells; format: cell-based; details: Homo sapiens, MTT assay, 48 h
Procedure: as §3

MCF-7 = test: cells; format: cell-based; details: Homo sapiens, MCF7; MTT assay, 48 h
Procedure: as §3

MDA-MB 231 = test: cells; format: cell-based; details: Homo sapiens, MTT assay, 48 h
Procedure: as §3

| Compound | IC50 (A375 (melanoma)) | IC50 (MCF-7 (breast carcinoma)) | IC50 [1] | IC50 (A549 (lung carcinoma)) | IC50 [2] | other results |
| --- | --- | --- | --- | --- | --- | --- |
| CCOC(=O)C1=C(OCC)NC(=O)NC1c1c2c(c(OC)c(OC)c1OC)-c1ccc(OC)c(=O)cc1[C@H](NC(C)=O)CC2 (stereo partly drawn) [Compound 3h, ethyl 4-((R)-7-acetamido-1,2,3,10-tetramethoxy-9-oxo-5,6,7,9-tetrahydrobenzo [a]heptalen-4-yl)-6-ethoxy-2-oxo-1,2,3,4-tetrahydropyrimidine-5-carboxylate] | 35.2 ± 2.79 µM | 49.9 ± 2.72 µM | > 50 µM | > 50 µM | 26.6 ± 2.65 µM | – |
| CCOC(=O)C1=C(C(F)(F)C(F)(F)F)NC(=O)NC1c1c2c(c(OC)c(OC)c1OC)-c1ccc(OC)c(=O)cc1[C@H](NC(C)=O)CC2 (stereo partly drawn) [Compound 3f, Ethyl 4-((R)-7-acetamido-1,2,3,10-tetramethoxy-9-oxo-5,6,7,9-tetrahydrobenzo [a]heptalen-4-yl)-2-oxo-6-(perfluoroethyl)-1,2,3,4-tetrahydropyrimidine-5-carboxylate] | 28.3 ± 2.19 µM | 26.4 ± 2.79 µM | 46.6 ± 0.86 µM | > 50 µM | 17.8 ± 1.3 µM | – |
| CCOC(=O)C1=C(C)NC(=N)NC1c1c2c(c(OC)c(OC)c1OC)-c1ccc(OC)c(=O)cc1[C@H](NC(C)=O)CC2 (stereo partly drawn) [Compound 3b, Ethyl 4-((R)-7-acetamido-1,2,3,10-tetramethoxy-9-oxo-5,6,7,9-tetrahydrobenzo [a]heptalen-4-yl)-2-imino-6-methyl-1,2,3,4-tetrahydropyrimidine-5-carboxylate] | > 50 µM | 44.7 ± 0.64 µM | > 50 µM | > 50 µM | 38.3 ± 1.36 µM | – |
| CCOC(=O)C1=C(C(Cl)(Cl)Cl)NC(=O)NC1c1c2c(c(OC)c(OC)c1OC)-c1ccc(OC)c(=O)cc1[C@H](NC(C)=O)CC2 (stereo partly drawn) [Compound 3d, Ethyl 4-((R)-7-acetamido-1,2,3,10-tetramethoxy-9-oxo-5,6,7,9-tetrahydrobenzo [a]heptalen-4-yl)-2-oxo-6-(trichloromethyl)-1,2,3,4-tetrahydropyrimidine-5-carboxylate] | > 50 µM | 43.79 ± 0.33 µM | > 50 µM | > 50 µM | 36.1 ± 1.79 µM | – |
| CCOC(=O)C1=C(C(F)(F)C(F)(F)F)NC(=O)NC1c1c2c(c(OC)c(OC)c1OC)-c1ccc(OC)c(=O)cc1[C@@H](NC(C)=O)CC2 (stereo partly drawn) [Compound 3g, Ethyl 4-((S)-7-acetamido-1,2,3,10-tetramethoxy-9-oxo-5,6,7,9-tetrahydrobenzo [a]heptalen-4-yl)-2-oxo-6-(perfluoroethyl)-1,2,3,4-tetrahydropyrimidine-5-carboxylate] | 10.3 ± 0.56 µM | 15.7 ± 0.39 µM | 24.9 ± 2.7 µM | > 50 µM | 15.8 ± 0.81 µM | inhibition at 20 µM (A375 (melanoma); A-375, read-out: growth inhibition): 60%; percentage of colony growth formation (A375 cells [3]; 20 µM, 48 h treatment, A375 cells, untreated control 100%): 37.5%; inhibition of colony formation (A375 cells [3]; melanoma cells (abstract)): up to 62.5%; percentage of wound closure (A375 cells [4]; 20 µM, 48 h, A375 cells, untreated control 84%): 69%; reduction of migration potential (A375 cells [4]; melanoma cells (abstract)): 69% |
| CCOC(=O)C1=C(c2cc(F)c(Cl)nc2Cl)NC(=O)NC1c1c2c(c(OC)c(OC)c1OC)-c1ccc(OC)c(=O)cc1[C@H](NC(C)=O)CC2 (stereo partly drawn) [Compound 3e, Ethyl 4-((R)-7-acetamido-1,2,3,10-tetramethoxy-9-oxo-5,6,7,9-tetrahydrobenzo [a]heptalen-4-yl)-6-(2,6-dichloro-5-fluoropyridin-3-yl)-2-oxo-1,2,3,4-tetrahydropyrimidine-5-carboxylate] | > 50 µM | 45.1 ± 0.73 µM | > 50 µM | > 50 µM | 40.3 ± 1.71 µM | – |
| COc1c(OC)c2c(c(C3NC(=O)NC(C)=C3C(=O)Oc3ccccc3)c1OC)CC[C@@H](NC(C)=O)c1cc(=O)c(OC)ccc1-2 (stereo partly drawn) [Compound 3c, phenyl 4-((R)-7-acetamido-1,2,3,10-tetramethoxy-9-oxo-5,6,7,9-tetrahydrobenzo [a]heptalen-4-yl)-6-methyl-2-oxo-1,2,3,4-tetrahydropyrimidine-5-carboxylate] | > 50 µM | 44.8 ± 0.68 µM | > 50 µM | > 50 µM | 35.6 ± 2.97 µM | – |
| COC1=C(C(=O)C2CC2)C(c2c3c(c(OC)c(OC)c2OC)-c2ccc(OC)c(=O)cc2[C@H](NC(C)=O)CC3)NC(=O)N1 (stereo partly drawn) [Compound 3i, N-((7R)-4-(5-(cyclopropanecarbonyl)-6-methoxy-2-oxo-1,2,3,4-tetrahydropyrimidin-4-yl)-1,2,3,10-tetramethoxy-9-oxo-5,6,7,9-tetrahydrobenzo [a]heptalen-7-yl) acetamide] | > 50 µM | > 50 µM | – | > 50 µM | 39.5 ± 1.36 µM | – |
| COC1=C(C(=O)C2CC2)C(c2c3c(c(OC)c(OC)c2OC)-c2ccc(OC)c(=O)cc2[C@@H](NC(C)=O)CC3)NC(=O)N1 (stereo partly drawn) [Compound 3j, N-((7S)-4-(5-(cyclopropanecarbonyl)-6-methoxy-2-oxo-1,2,3,4-tetrahydropyrimidin-4-yl)-1,2,3,10-tetramethoxy-9-oxo-5,6,7,9-tetrahydrobenzo [a]heptalen-7-yl) acetamide] | > 50 µM | > 50 µM | > 50 µM | > 50 µM | 39 ± 0.79 µM | – |
| CCOC(=O)C1=C(C)NC(=S)NC1c1c2c(c(OC)c(OC)c1OC)-c1ccc(OC)c(=O)cc1[C@H](NC(C)=O)CC2 (some centres unmarked) [Compound 3a] | > 50 µM | 40.6 ± 0.91 µM | > 50 µM | > 50 µM | 29.66 ± 0.07 µM | – |
| COc1cc2c(c(OC)c1OC)-c1ccc(OC)c(=O)cc1[C@@H](NC(C)=O)CC2 [Colchicine] | – | – | – | – | – | block of mitotic cells (mitosis cell cycle): blocks almost all the prophase, metaphase, and anaphase cells |
| CC(=O)O[C@H]1C(=O)[C@@]2(C)[C@H]([C@H](OC(=O)c3ccccc3)[C@]3(O)C[C@H](OC(=O)[C@H](O)[C@@H](NC(=O)c4ccccc4)c4ccccc4)C(C)=C1C3(C)C)[C@]1(OC(C)=O)CO[C@@H]1C[C@@H]2O [Paclitaxel] | – | – | – | – | – | IC50 (A375): 0.017 ± 0.028 µM; IC50 (A549): 0.028 ± 0.008 µM; IC50 (MCF-7): 0.014 ± 0.001 µM; IC50 (MDA-MB 231): 0.02 ± 0.002 µM |
